In US20250381110A1, “SKIN CARE COMPOSITION AND METHOD OF USING THE SAME” (THE PROCTER & GAMBLE COMPANY, priority 2024, published 2025):
Counter-ions that a name gives are not always drawn.

Test system: p62-dependent mitophagy
Experiment: Luciferase-p62 assay (Fluc-p62 clearance) in mouse embryonic fibroblasts
Format: cell-based
Conditions: for Mean Luminescence: Luciferase-p62 assay, mouse embryonic fibroblasts (MEFs), compounds at 10 μM; for % Activity over baseline: percentage of Luciferase-p62 clearance relative to baseline (mean luminescence in the absence of doxycycline induction); for % Activity over baseline / % Activity relative to Rapamycin: MEFs, 10 μM; for % Activity relative to Rapamycin: percentage of activity relative to rapamycin tested in the same experiment at the same concentration
Experimental: To identify p62-dependent materials which increase mitophagy, a Luciferase-p62 Assay was established. This method provides an approach to measure the ability of a material to modulate p62-dependent mitophagy by using an inducible firefly luciferase-p62 (Fluc-p62) reporter cell system. In this assay, p62 levels are driven by doxycycline treatment. After levels increased, expression of Fluc-p62 is turned off by removal of doxycycline, materials are then added and assessed for how they affect clearance of Fluc-p62 protein, which is proportionate to cellular mitophagy rates (Kelly et al.). The negative control is doxycycline induced Luc-p62 in the absence of compound or bioactive material treatment and in the presence of vehicle (DMSO).
Test materials including bioactive materials were screened in mouse embryonic fibroblasts (MEFs, Harada et al.) expressing the TET-inducible p62-fluc construct as previously described (Brown et al.). […] Gibson assembly was used to insert firefly luciferase (Fluc) and p62 into the pCW57.1 backbone. Fluc, p62, and pCW57.1 were polymerase chain reaction (PCR) amplified using pfu polymerase (Life technologies) and Gibson assembly primers with 20 base pair (bp) overhangs. PCR products were separated by agarose gel electrophoreses, and fragments excised and purified before use in DNA assembly reaction with NEBuilder HiFi DNA Assembly kit (New England Biolabs). After the assembly, the reaction mix was transformed into NEB3040 Stable Competent Escherichia coli (New England Biolabs). After 24 hours growth at 31 degrees Celsius the plasmid was extracted using QIAprep Spin Miniprep kit (Qiagen). The plasmid was sequenced to confirm correct insertion of Fluc-p62. To generate MEFs stably expressing doxycycline inducible Fluc-p62, HEK293FT cells were transfected with Fluc-p62-pCW57.1 and the ViraPower Packaging Mix (Invitrogen) to produce lentivirus. MEFs were transduced with the obtained lentiviral stock following followed by selection with 1 microgram per milliliter puromycin.Fluc-p62expressing MEFs were maintained in DMEM supplemented with 10 percent fetal bovine serum (FBS), 100 units per milliliter penicillin/streptomycin, and 2 millimolar L-glutamine in a humidified atmosphere containing 5 percent carbon dioxide at 37 degrees Celsius. Cells were plated into white 96 well plates (2,000 cells per well with 100 microliters media) and allowed to settle for 24 hours. […] Subsequently, cells were treated with test materials for 48 hours in normal growth medium and analysed using ONE-Glo™+Tox Luciferase Reporter and Cell Viability Assay (Promega) by following the manufacturer's protocol.
Test compositions and control compositions were prepared as described above in the Luciferase-p62 assay (Method 3) and tested accordingly. The compounds used in this example, as examples of bioactive materials, were from the APExBIO DiscoveryProbe™ Natural Product Library Plus (Houston, TX) and evaluated at equivalent concentrations (10 μM).
Data are additionally calculated as percentage of activity relative to rapamycin, a benchmark control compound tested in the same experiment.

Compound | Mean Luminescence | % Activity over baseline [%] | % Activity relative to Rapamycin [%]
CC1(C)S[C@@H]2[C@H](NC(=O)Cc3ccccc3)C(=O)N2[C@H]1C(=O)O [Benzylpenicillin potassium] | 937.79 | 42.04 | 75.75
COc1ccc2cc3[n+](cc2c1O)CCc1cc2c(cc1-3)OCO2 [Berberrubine] | 766.18 | 52.65 | 94.86
N[C@@H]1CCCCN(c2c(F)cc3c(=O)c(C(=O)O)cn(C4CC4)c3c2Cl)C1 [Besifloxacin HCl] | 777.82 | 51.93 | 93.56
O=C(O)CCNC(=O)c1ccccc1 [Betamipron] | 923.38 | – | –
O=C(/C=C/c1ccc(O)cc1)CC(=O)/C=C/c1ccc(O)cc1 [Bisdemethoxycurcumin] | 355.33 | 78.04 | 140.61
C[C@H]1CCC/C=C/[C@@H]2C[C@H](O)C[C@H]2[C@H](O)/C=C/C(=O)O1 [Brefeldin A] | 356.17 | 77.99 | 140.52
CC(C)C[C@H]1C(=O)N2CCC[C@H]2[C@]2(O)O[C@](NC(=O)[C@@H]3C=C4c5cccc6[nH]c(Br)c(c56)C[C@H]4N(C)C3)(C(C)C)C(=O)N12 [Bromocriptine mesylate] | 685.00 | 57.67 | 103.90
CN(Cc1ccc(C(C)(C)C)cc1)Cc1cccc2ccccc12 [Butenafine HCl] | 582.45 | 64.00 | 115.32
CO[C@H]1C(=O)[C@]2(C)[C@@H](OC)C[C@H]3OC[C@@]3(OC(C)=O)[C@H]2[C@H](OC(=O)c2ccccc2)[C@]2(O)C[C@H](OC(=O)[C@H](O)[C@@H](NC(=O)OC(C)(C)C)c3ccccc3)C(C)=C1C2(C)C [Cabazitaxel] | 929.36 | 42.56 | 76.69
CC(C)(CO)C(O)C(=O)NCCC(=O)[O-].CC(C)(CO)C(O)C(=O)NCCC(=O)[O-].[Ca+2] [Calcium D-Panthotenate] | 981.67 | 39.33 | 70.87
CCCCCOC(=O)Nc1nc(=O)n([C@@H]2O[C@H](C)[C@@H](O)[C@H]2O)cc1F [Capecitabine] | 918.89 | 43.21 | 77.86
COc1cc(CNC(=O)CCCC/C=C/C(C)C)ccc1O [Capsaicin] | 832.02 | 48.58 | 87.53
CC1(C)[C@@H](OC(=O)CCC(=O)O)CC[C@]2(C)[C@H]3C(=O)C=C4[C@@H]5C[C@@](C)(C(=O)O)CC[C@]5(C)CC[C@@]4(C)[C@]3(C)CC[C@@H]12 [Carbenoxolone disodium] | 856.44 | 47.07 | 84.81
CC(C)c1cc2c(c(O)c1O)[C@@]1(C(=O)O)CCCC(C)(C)[C@@H]1CC2 [Carnosic acid] | 661.96 | 59.09 | 106.47
Cc1ccc(C(C)C)cc1O [Carvacrol] | 937.62 | 42.05 | 75.77
C[C@@H]1CC[C@H]2C(C)(C)[C@H]3C[C@@]12CC[C@@]3(C)O [Cedrol] | 850.22 | 47.46 | 85.50
CO/N=C(\C(=O)N[C@@H]1C(=O)N2C(C(=O)O)=C(Cn3ccc(=N)n3CCO)CS[C@H]12)c1csc(N)n1.O=S(=O)(O)O [Cefoselis Sulfate] | 937.12 | 42.09 | 75.83

Compound | Mean Luminescence | % Activity over baseline [%] | % Activity relative to Rapamycin [%]
CN(C)CCn1nnnc1SCC1=C(C(=O)O)N2C(=O)[C@@H](NC(=O)Cc3csc(N)n3)[C@H]2SC1 [Cefotiam hydrochloride] | 993.62 | 38.59 | 69.54
CO/N=C(\C(=O)N[C@@H]1C(=O)N2C(C(=O)O)=C(CSC(=O)c3ccco3)CS[C@H]12)c1csc(N)n1 [Ceftiofur HCl] | 781.02 | 51.73 | 93.21
CO/N=C(\C(=O)N[C@@H]1C(=O)N2C(C(=O)OC(C)OC(C)=O)=C(COC(N)=O)CS[C@H]12)c1ccco1 (stereo partly shown) [Cefuroxime axetil] | 958.52 | 40.76 | 73.44
CC(=O)OCC1=C(C(=O)O)N2C(=O)[C@@H](NC(=O)Cc3cccs3)[C@H]2SC1 [Cephalothin] | 727.65 | 55.03 | 99.15
C[C@H](CCC(=O)O)[C@H]1CC[C@H]2[C@@H]3[C@H](O)C[C@@H]4C[C@H](O)CC[C@]4(C)[C@H]3CC[C@]12C [Chenodeoxycholic Acid] | 999.71 | 38.22 | 68.86
Oc1c(Cl)cc(Cl)c2cccnc12 [Chloroxine] | 272.45 | 83.16 | 149.84
CC[C@H]1OC(=O)[C@H](C)[C@@H](O[C@H]2C[C@@](C)(OC)[C@@H](O)[C@H](C)O2)[C@H](C)[C@@H](O[C@@H]2O[C@H](C)C[C@H](N(C)C)[C@H]2O)[C@](C)(OC)C[C@@H](C)C(=O)[C@H](C)[C@@H](O)[C@]1(C)O [Clarithromycin] | 941.49 | 41.82 | 75.34
CC(C)(C)NCC(O)c1cc(Cl)c(N)c(Cl)c1 (stereo not shown) [Clenbuterol (hydrochloride)] | 994.53 | 38.54 | 69.44
CCC[C@@H]1C[C@@H](C(=O)N[C@@H]([C@H]2O[C@H](SC)[C@H](OP(=O)(O)O)[C@@H](O)[C@H]2O)[C@H](C)Cl)N(C)C1 [Clindamycin Phosphate] | 526.49 | 67.46 | 121.55
Clc1ccccc1C(c1ccccc1)(c1ccccc1)n1ccnc1 [Clotrimazole] | 623.22 | 61.48 | 110.78
O=c1ccn([C@H]2C[C@H](O)[C@@H](CO)O2)c(=O)[nH]1 [Compound 2-Deoxyuridine] | 867.92 | 46.36 | 83.53
NC(=O)Cc1ccccc1 [Compound 2-Phenylacetamide, 2-Phenylacetamide] | 861.95 | 46.73 | 84.20
Nc1ccc(O)cc1 [Compound 4-Aminophenol, 4-Aminophenol] | 482.45 | 70.18 | 126.45
N[C@@H](Cc1c[nH]c2ccc(O)cc12)C(=O)O [Compound 5-HTP] | 902.36 | 44.23 | 79.70
CC(=O)O[C@H]1C(=O)[C@@]2(C)[C@H]([C@H](OC(=O)c3ccccc3)[C@]3(O)C[C@H](OC(=O)[C@H](O)[C@@H](NC(=O)c4ccccc4)c4ccccc4)C(C)=C1C3(C)C)[C@]1(OC(C)=O)CO[C@@H]1C[C@@H]2O [Compound 7-Epitaxol] | 968.61 | 40.14 | 72.32
CCCCCCCCC[C@H](O)CC(=O)CCc1ccc(O)c(OC)c1 [Compound 10-Gingerol] | 520.57 | 67.83 | 122.21
O=C(O[C@@H]1O[C@@H]2COC(=O)c3cc(O)c(O)c(O)c3-c3c(cc(O)c(O)c3O)C(=O)O[C@H]([C@H]1O)[C@@H]2O)c1cc(O)c(O)c(O)c1 [Corilagin] | 985.42 | 39.10 | 70.45
